The text below walks through data of patent US20260250250A1, “3-(SULPHONYL OR SULFONIMIDOYL)PROP-2-EN-1-YL]-2-OXO-1,2-DIHYDROPYRIDINE-3-CARBOXAMIDE DERIVATIVES” (Flinder Therapeutics B.V., priority 2022, published 2026).

Usually IC50 stands for the midpoint of a concentration-inhibition curve. Low readings indicate greater potency in that assay, high ones weaker potency in that assay.

SMILES strings stand for the structures.

Experiment [1] has as its target T1, human E3 ubiquitin-protein ligase RNF31 (HOIP) (Homo sapiens, UniProt Q96EP0).
T1 sequence (Q96EP0 695-1072 limits assumed): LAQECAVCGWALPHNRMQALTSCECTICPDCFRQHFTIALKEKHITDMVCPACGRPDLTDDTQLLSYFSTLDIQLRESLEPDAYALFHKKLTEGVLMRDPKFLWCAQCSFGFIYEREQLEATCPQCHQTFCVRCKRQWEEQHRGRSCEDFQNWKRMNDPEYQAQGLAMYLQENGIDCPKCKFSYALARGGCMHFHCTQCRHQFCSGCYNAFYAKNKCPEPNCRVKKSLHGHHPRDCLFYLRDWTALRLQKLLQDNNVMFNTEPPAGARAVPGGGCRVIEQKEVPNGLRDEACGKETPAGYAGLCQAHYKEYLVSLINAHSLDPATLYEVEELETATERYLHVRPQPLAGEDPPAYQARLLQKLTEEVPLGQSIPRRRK
Nature of the experiment: Cell-free HTRF-based HOIP inhibition assay. It counts as biochemical. The method in brief: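 Recombinant human HOIP fragment (E. coli) preincubated with compounds (100-0.005 μM, 1% DMSO) and E1 for 1 h at 25° C. E2 and substrates then added; reaction 2.5 h at 25° C. HTRF read-out, excitation 337 nm, emissions 665/620 nm.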
Background: In TR-FRET formats the signal depends on donor and acceptor labels being close together.

A further experiment deals with NF-κB signaling pathway. Nature of the experiment: Cell-based dual luciferase NF-κB reporter assay (HEK293 cells, TNF stimulated). The following applies: Homo sapiens, HEK293. The method in brief:
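HEK293 cells transfected with Firefly luciferase and NF-κB-response-element NanoLuc plasmids; compounds at 100–0.005 µM in 1% DMSO. Cells stimulated with 2.5 ng/mL TNF 30 min after compound addition. Firefly and NanoLuc activities read after 6 h by Nano-Glo dual-luciferase detection.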
On the technique in general: Reporter assays use an easily measured gene product as a stand-in for the process of interest.

Experiment [2] deals with bladder carcinoma RT4 cell line. Nature of the experiment: TNF-α-induced cytotoxicity assay (CellTiter-Glo viability). In kind it is cell-based. The following applies: Homo sapiens, RT-4, 72 h. The method in brief:
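RT4 bladder carcinoma cells, 1000 per well, stimulated with 1.25 ng/mL TNFα together with compound for 72 h at 37° C., 5% CO2. Viability read by CellTiter-Glo luminescence, proportional to cellular ATP, as a measure of HOIP-dependent cytotoxicity.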
In general terms: ATP-based viability assays read luminescence as a measure of living cells.

Take `CC12CC(C(=O)N3CCc4[nH]c(=O)c(C(=O)NC/C=C/S(=O)(=O)c5ccccc5)cc4C3)(C1)C2` [Example 114, N-[(2E)-3-(benzenesulfonyl)prop-2-en-1-yl]-6-{3-methylbicyclo[1.1.1]pentane-1-carbonyl}-2-oxo-1,2,5,6,7,8-hexahydro-1,6-naphthyridine-3-carboxamide]: the IC50 is ≤ 1 µM in experiment [1], ≤ 10 µM with NF-κB signaling pathway and ≤ 100 µM in experiment [2].

For `CC1(C(=O)N2CCc3[nH]c(=O)c(C(=O)NC/C=C/S(=O)(=O)c4ccccc4)cc3C2)CCC1` [Example 115, N-[(2E)-3-(benzenesulfonyl)prop-2-en-1-yl]-6-(1-methylcyclobutanecarbonyl)-2-oxo-1,2,5,6,7,8-hexahydro-1,6-naphthyridine-3-carboxamide], the IC50 in experiment [1] was ≤ 1 µM; with NF-κB signaling pathway, ≤ 100 µM; in experiment [2], ≤ 100 µM.

Consider `O=C(NC/C=C/S(=O)(=O)c1ccccc1)c1cc2c([nH]c1=O)CCN(C(=O)c1nc(C3CC3)cs1)C2` [Example 116, N-[(2E)-3-(benzenesulfonyl)prop-2-en-1-yl]-6-(4-cyclopropyl-1,3-thiazole-2-carbonyl)-2-oxo-1,2,5,6,7,8-hexahydro-1,6-naphthyridine-3-carboxamide], for which the results for the IC50 (in experiment [1]; with NF-κB signaling pathway; in experiment [2]) were ≤ 0.1 µM, ≤ 10 µM and ≤ 10 µM, respectively.

Regarding `O=C(NC/C=C/S(=O)(=O)c1ccccc1)c1cc2c([nH]c1=O)CCN(C(=O)CC1CC1)C2` [Example 117, N-[(2E)-3-(benzenesulfonyl)prop-2-en-1-yl]-6-(2-cyclopropylacetyl)-2-oxo-1,2,5,6,7,8-hexahydro-1,6-naphthyridine-3-carboxamide], the IC50 in experiment [1] was ≤ 1 µM; in the experiment on NF-κB signaling pathway it was ≤ 100 µM; in experiment [2], ≤ 100 µM.

With `CC(C)COC(=O)N1CCc2[nH]c(=O)c(C(=O)NC/C=C/S(=O)(=O)c3ccccc3)cc2C1` [Example 119, 2-methylpropyl 3-{[(2E)-3-(benzenesulfonyl)prop-2-en-1-yl]carbamoyl}-2-oxo-1,2,5,6,7,8-hexahydro-1,6-naphthyridine-6-carboxylate], the IC50 in experiment [1] was ≤ 0.1 µM; in the experiment on NF-κB signaling pathway it was ≤ 1 µM; in experiment [2], ≤ 1 µM.

Consider `CC(C)(C)CC(=O)N1CCc2[nH]c(=O)c(C(=O)NC/C=C/S(=O)(=O)c3ccccc3)cc2C1` [Example 120, N-[(2E)-3-(benzenesulfonyl)prop-2-en-1-yl]-6-(3,3-dimethylbutanoyl)-2-oxo-1,2,5,6,7,8-hexahydro-1,6-naphthyridine-3-carboxamide], for which the results for the IC50 (in experiment [1]; with NF-κB signaling pathway; in experiment [2]) were ≤ 1 µM, ≤ 10 µM and ≤ 10 µM, respectively.

Consider `Cn1ncc2c(CN3CCc4[nH]c(=O)c(C(=O)NC/C=C/S(=O)(=O)c5ccccc5)cc4C3)cccc21` [Example 121, N-[(2E)-3-(benzenesulfonyl)prop-2-en-1-yl]-6-[(1-methyl-1H-indazol-4-yl)methyl]-2-oxo-1,2,5,6,7,8-hexahydro-1,6-naphthyridine-3-carboxamide], for which the IC50 in experiment [1] was ≤ 0.1 µM; in the experiment with NF-κB signaling pathway, ≤ 1 µM; in experiment [2] it was ≤ 10 µM.

Consider `O=C(NC/C=C/S(=O)(=O)c1ccccc1)c1cc2c([nH]c1=O)CCN(C(=O)OCCc1ccc(Cl)cc1)C2` [Example 122, 2-(4-chlorophenyl)ethyl 3-{[(2E)-3-(benzenesulfonyl)prop-2-en-1-yl]carbamoyl}-2-oxo-1,2,5,6,7,8-hexahydro-1,6-naphthyridine-6-carboxylate], for which the IC50 (in experiment [1]; in the experiment on NF-κB signaling pathway; in experiment [2]) was ≤ 1 µM in each case.

Take `O=C(NC/C=C/S(=O)(=O)c1ccccc1)c1cc2c([nH]c1=O)CCN(Cc1cccnn1)C2` [Example 123, N-[(2E)-3-(benzenesulfonyl)prop-2-en-1-yl]-2-oxo-6-[(pyridazin-3-yl)methyl]-1,2,5,6,7,8-hexahydro-1,6-naphthyridine-3-carboxamide]: the values for the IC50 (in experiment [1]; with NF-κB signaling pathway; in experiment [2]) were ≤ 1 µM, ≤ 100 µM and ≤ 100 µM, respectively.

`O=C(NC/C=C/S(=O)(=O)c1ccccc1)c1cc2c([nH]c1=O)CCN(C(=O)C1CC1c1ccccc1)C2` (stereo not drawn) [Example 125, N-[(2E)-3-(benzenesulfonyl)prop-2-en-1-yl]-2-oxo-6-(2-phenylcyclopropanecarbonyl)-1,2,5,6,7,8-hexahydro-1,6-naphthyridine-3-carboxamide]: the IC50 in experiment [1] is ≤ 1 µM; in the experiment with NF-κB signaling pathway, ≤ 10 µM; in experiment [2] it was ≤ 10 µM.

As to `O=C(NC/C=C/S(=O)(=O)c1ccc(Cl)cc1Cl)c1cc(-c2ccccc2)c[nH]c1=O` [Example 126, N-[(2E)-3-(2,4-dichlorobenzenesulfonyl)prop-2-en-1-yl]-2-oxo-5-phenyl-1,2-dihydropyridine-3-carboxamide], the values for the IC50 (in experiment [1]; in the experiment with NF-κB signaling pathway; in experiment [2]) were ≤ 0.1 µM, ≤ 1 µM and ≤ 10 µM, respectively.

With `O=C(NC/C=C/S(=O)(=O)c1ccc(F)cc1F)c1cc(-c2ccccc2)c[nH]c1=O` [Example 127, N-[(2E)-3-(2,4-difluorobenzenesulfonyl)prop-2-en-1-yl]-2-oxo-5-phenyl-1,2-dihydropyridine-3-carboxamide], the IC50 in experiment [1] is ≤ 1 µM; in the experiment with NF-κB signaling pathway, ≤ 1 µM; in experiment [2], ≤ 10 µM.

For the compound `O=C(NC/C=C/S(=O)(=O)c1ccc(F)cc1Cl)c1cc(-c2ccccc2)c[nH]c1=O` [Example 128, N-[(2E)-3-(2-chloro-4-fluorobenzenesulfonyl)prop-2-en-1-yl]-2-oxo-5-phenyl-1,2-dihydropyridine-3-carboxamide], the IC50 in experiment [1] was ≤ 1 µM; in the experiment on NF-κB signaling pathway, ≤ 10 µM; in experiment [2] it was ≤ 10 µM.

For the compound `N=S(=O)(/C=C/CNC(=O)c1cc2c([nH]c1=O)CCCC2)c1ccc(Cl)cc1` (stereo not drawn) [Example 131, N-[(2E)-3-[(4-chlorophenyl)(imino)oxo-λ^6-sulfanyl]prop-2-en-1-yl]-2-oxo-1,2,5,6,7,8-hexahydroquinoline-3-carboxamide], the results for the IC50 (in experiment [1]; in the experiment with NF-κB signaling pathway; in experiment [2]) were ≤ 0.1 µM, ≤ 1 µM and ≤ 1 µM, respectively.

For the compound `N=S(=O)(/C=C/CNC(=O)c1cc2c([nH]c1=O)CCCC2)c1ccccc1F` (stereo not drawn) [Example 132, N-[(2E)-3-[(2-fluorophenyl)(imino)oxo-λ^6-sulfanyl]prop-2-en-1-yl]-2-oxo-1,2,5,6,7,8-hexahydroquinoline-3-carboxamide], the values for the IC50 (in experiment [1]; in the experiment on NF-κB signaling pathway; in experiment [2]) were ≤ 1 µM, ≤ 1 µM and ≤ 10 µM, respectively.

Consider `COc1ccc(S(=N)(=O)/C=C/CNC(=O)c2cc3c([nH]c2=O)CCCC3)cc1Cl` (stereo not drawn) [Example 133, N-[(2E)-3-[(3-chloro-4-methoxyphenyl)(imino)oxo-λ^6-sulfanyl]prop-2-en-1-yl]-2-oxo-1,2,5,6,7,8-hexahydroquinoline-3-carboxamide], for which the IC50 was ≤ 0.1 µM in experiment [1], ≤ 1 µM with NF-κB signaling pathway and ≤ 1 µM in experiment [2].

Consider `N=S(=O)(/C=C/CNC(=O)c1cc2c([nH]c1=O)CCCC2)c1cccc(Cl)c1` (stereo not drawn) [Example 134, N-[(2E)-3-[(3-chlorophenyl)(imino)oxo-λ^6-sulfanyl]prop-2-en-1-yl]-2-oxo-1,2,5,6,7,8-hexahydroquinoline-3-carboxamide], for which the IC50 (in experiment [1]; in the experiment with NF-κB signaling pathway; in experiment [2]) was ≤ 1 µM in each case.

Regarding `N=S(=O)(/C=C/CNC(=O)c1cc2c([nH]c1=O)CCCC2)c1ccc(F)cc1F` (stereo not drawn) [Example 135, N-[(2E)-3-[(2,4-difluorophenyl)(imino)oxo-λ^6-sulfanyl]prop-2-en-1-yl]-2-oxo-1,2,5,6,7,8-hexahydroquinoline-3-carboxamide], the IC50 is ≤ 1 µM in experiment [1], ≤ 1 µM in the experiment on NF-κB signaling pathway and ≤ 10 µM in experiment [2].

Regarding `N#Cc1ccc(S(=N)(=O)/C=C/CNC(=O)c2cc3c([nH]c2=O)CCCC3)cc1` (stereo not drawn) [Example 136, N-[(2E)-3-[(4-cyanophenyl)(imino)oxo-λ^6-sulfanyl]prop-2-en-1-yl]-2-oxo-1,2,5,6,7,8-hexahydroquinoline-3-carboxamide], the IC50 in experiment [1] is ≤ 0.1 µM; in the experiment on NF-κB signaling pathway, ≤ 1 µM; in experiment [2], ≤ 10 µM.

With `COc1ccc(S(=N)(=O)/C=C/CNC(=O)c2cc3c([nH]c2=O)CCCC3)cc1C` (stereo not drawn) [Example 137, N-[(2E)-3-[imino(4-methoxy-3-methylphenyl)oxo-λ^6-sulfanyl]prop-2-en-1-yl]-2-oxo-1,2,5,6,7,8-hexahydroquinoline-3-carboxamide], the IC50 (in experiment [1]; with NF-κB signaling pathway; in experiment [2]) was ≤ 1 µM each time.

Consider `CC(C)Oc1ccc(S(=N)(=O)/C=C/CNC(=O)c2cc3c([nH]c2=O)CCCC3)cc1` (stereo not drawn) [Example 138, N-[(2E)-3-[imino(oxo)[4-(propan-2-yloxy)phenyl]-λ^6-sulfanyl]prop-2-en-1-yl]-2-oxo-1,2,5,6,7,8-hexahydroquinoline-3-carboxamide], for which the IC50 (in experiment [1]; with NF-κB signaling pathway; in experiment [2]) was ≤ 1 µM each time.
